# System: ncRNAs (SEQ ID NO 28-89)
# Assay: ncRNA arrays of melanocytes, keratinocytes, normal skin, melanoma cell lines and patient samples
# Design: species or system human
# Details: for ncRNA array expression, patient 2: melanoma patient 2 sample compared to normal skin; for ncRNA array expression, patient 3: melanoma patient 3 sample compared to normal skin; for ncRNA array expression, patient 4: melanoma patient 4 sample compared to normal skin; for ncRNA array expression, patient 5: melanoma patient 5 sample compared to normal skin; for ncRNA array expression, patient 6: melanoma patient 6 sample compared to normal skin; for ncRNA array expression, patient 7: melanoma patient 7 sample compared to normal skin; for ncRNA array expression, patient 8: melanoma patient 8 sample compared to normal skin; for ncRNA array expression, patient 9: melanoma patient 9 sample compared to normal skin; for ncRNA array expression, patient 10: melanoma patient 10 sample compared to normal skin; for ncRNA array expression, patient 19: melanoma patient 19 sample compared to normal skin; for ncRNA array expression, patient 20: melanoma patient 20 sample compared to normal skin; for ncRNA array expression, patient 21: melanoma patient 21 sample compared to normal skin; for ncRNA array expression, patient 22: melanoma patient 22 sample compared to normal skin; for ncRNA array expression, patient 23: melanoma patient 23 sample compared to normal skin; for ncRNA array expression, patient 24: melanoma patient 24 sample compared to normal skin; for ncRNA array expression, patient 25: melanoma patient 25 sample compared to normal skin; for ncRNA array expression, patient 26: melanoma patient 26 sample compared to normal skin; for ncRNA array expression, patient 27: melanoma patient 27 sample compared to normal skin; for ncRNA array expression, patient 28: melanoma patient 28 sample compared to normal skin; for ncRNA array expression, patient 29: melanoma patient 29 sample compared to normal skin; for ncRNA array expression, patient 30: melanoma patient 30 sample compared to normal skin
# Outline: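 Total RNA from melanocytes, keratinocytes, normal human skin, melanoma cell lines and melanoma patient samples was profiled on an array of >10,000 putative (>200 nt) human and mouse ncRNAs plus RefSeq mRNA probes. Expression was compared with melanocytes or normal skin, keratinocyte signatures were subtracted, and hits were validated by qRT-PCR and Northern blot.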
Substance,"ncRNA array expression, patient 2","ncRNA array expression, patient 3","ncRNA array expression, patient 4","ncRNA array expression, patient 5","ncRNA array expression, patient 6","ncRNA array expression, patient 7","ncRNA array expression, patient 8","ncRNA array expression, patient 9","ncRNA array expression, patient 10","ncRNA array expression, patient 19","ncRNA array expression, patient 20","ncRNA array expression, patient 21","ncRNA array expression, patient 22","ncRNA array expression, patient 23","ncRNA array expression, patient 24","ncRNA array expression, patient 25","ncRNA array expression, patient 26","ncRNA array expression, patient 27","ncRNA array expression, patient 28","ncRNA array expression, patient 29",other results
"SEQ ID NO 53 (ATATATTTAGATAGTACTATGTTTCGTTTTCTTCCGATTTCAGGGATCCTTTTGTCTTAC; listed as DNA, chemistry not given here; listed as Homo sapiens)",−2.867,−2.306,−2.08,−2.02,−1.882,−2.068,−1.878,−2.195,−3.16,−2.319,−1.903,−2.124,−2.7031,−3.175,−1.827,−2.864,−3.105,−2.542,−1.905,−2.948,"ncRNA array expression, patient 30: −3.05"
"SEQ ID NO 54 (TTTTTTTTCTTGTCCTATTACAACATTTTATAACCTTATGAATCAATGGATACTTTTATT; listed as DNA, chemistry not given here; listed as Homo sapiens)",0.357,2.627,3.179,0.2547,0.568,1.3,1.144,−0.1401,0.4363,3.034,1.876,1.299,−0.2466,0.7631,2.124,3.287,2.689,4.17,1.501,−0.1851,"ncRNA array expression, patient 30: −0.1125"
"SEQ ID NO 55 (CCTCTCCCCTTCTTGCAAAAAATATTCTATATTCAAGTTTAGGAGAAAACAGAATACTTG; listed as DNA, chemistry not given here; listed as Homo sapiens)",−1.54,−1.638,−1.747,−1.565,−1.135,−1.9789,−1.065,−2.029,−1.191,−1.029,−1.812,−2.321,−1.439,−1.275,−1.478,−2.11,−2.186,−2.019,−2.043,−2.155,"ncRNA array expression, patient 30: −0.5021"
"SEQ ID NO 56 (AAAAAATGAGGCAATCTCATCCCGAAACTATTTAAAACTACTCTCCTCTCTCTTGATAAA; listed as DNA, chemistry not given here; listed as Homo sapiens)",−2.014,−1.535,−1.64,−1.4872,−1.129,−1.282,−1.314,−1.818,−2.922,−1.228,−1.698,−1.986,−1.277,−1.277,−1.273,−2.407,−2.501,−1.97,−1.952,−1.912,"ncRNA array expression, patient 30: −0.5599"
"SEQ ID NO 57 (TTGTTGTTTTGGGAGATACCCTGTTTAGCCTGAAAGGATTGAGATACTGTAATTGCTATG; listed as DNA, chemistry not given here; listed as Homo sapiens)",1.808,2.081,1.613,2.211,1.68,0.6099,1.985,0.645,0.5023,0.2628,0.1922,0.9386,1.473,1.122,0.5436,1.559,1.989,1.446,1.064,0.4459,"ncRNA array expression, patient 30: −0.5305"
"SEQ ID NO 58 (ATTTATTTGACTCTAAAATGACAATATAACAACTATAAGGAATTGATATGATGTCCTTAC; listed as DNA, chemistry not given here; listed as Homo sapiens)",−1.675,−1.723,−0.4325,−1.707,−1.802,−1.2619,−1.825,−1.569,−1.223,−1.471,−1.134,−1.719,−1.28,−1.756,−1.757,−1.52,−1.463,−1.595,−1.708,−1.543,"ncRNA array expression, patient 30: −1.631"
"SEQ ID NO 59 (TGTGCAGCAGTATCAAAGGTCCTTAAATTCTCAACAATGAAGGAAAAACAAAAACCCATT; listed as DNA, chemistry not given here; listed as Homo sapiens)",−0.9339,−1.02,−1.168,−1.255,−1.212,−0.9325,−0.9937,−1.258,−0.9688,−1.202,−1.14,−1.263,−0.5383,−1.165,−1.154,−0.9916,−0.8776,−1.161,−1.232,−1.077,"ncRNA array expression, patient 30: −1.04"
"SEQ ID NO 60 (ACTAACAGCACTGGAGGGTGTAGTGTTTCCTACTTTATGGATGAGTGTACTGTGGGCTTC; listed as DNA, chemistry not given here; listed as Homo sapiens)",2.776,2.279,2.327,0.8655,−1.218,2.958,0.3154,1.739,2.002,0.3888,2.119,0.7491,3.236,1.416,1.295,1.226,1.537,1.485,0.6983,1.398,"ncRNA array expression, patient 30: 0.02973"

# Source: US20110143948A1, “MOLECULAR SIGNATURES AND BIOMARKERS ASSOCIATED WITH MELANOMA AND METHODS OF USE THEREOF” (priority 2008, published 2011)
